Where a chain is given by its changes, count along the chain named. In names and notes the source's numbering stands.
Experiments:
[1] = target: AcrB (Escherichia coli, UniProt P31224, I27A); assay: ITC; type: binding
[2] = target: AcrB (Escherichia coli, UniProt P31224); assay: ITC; type: binding
[3] = target: AcrB (Escherichia coli, UniProt P31224, V340A); assay: ITC; type: binding
[4] = target: AcrB (Escherichia coli, UniProt P31224, N298A); assay: ITC; type: binding
[5] = target: the molecule itself; assay: crystal structure

Sequence of AcrB (Escherichia coli, UniProt P31224, I27A) (P31224 whole entry I27A): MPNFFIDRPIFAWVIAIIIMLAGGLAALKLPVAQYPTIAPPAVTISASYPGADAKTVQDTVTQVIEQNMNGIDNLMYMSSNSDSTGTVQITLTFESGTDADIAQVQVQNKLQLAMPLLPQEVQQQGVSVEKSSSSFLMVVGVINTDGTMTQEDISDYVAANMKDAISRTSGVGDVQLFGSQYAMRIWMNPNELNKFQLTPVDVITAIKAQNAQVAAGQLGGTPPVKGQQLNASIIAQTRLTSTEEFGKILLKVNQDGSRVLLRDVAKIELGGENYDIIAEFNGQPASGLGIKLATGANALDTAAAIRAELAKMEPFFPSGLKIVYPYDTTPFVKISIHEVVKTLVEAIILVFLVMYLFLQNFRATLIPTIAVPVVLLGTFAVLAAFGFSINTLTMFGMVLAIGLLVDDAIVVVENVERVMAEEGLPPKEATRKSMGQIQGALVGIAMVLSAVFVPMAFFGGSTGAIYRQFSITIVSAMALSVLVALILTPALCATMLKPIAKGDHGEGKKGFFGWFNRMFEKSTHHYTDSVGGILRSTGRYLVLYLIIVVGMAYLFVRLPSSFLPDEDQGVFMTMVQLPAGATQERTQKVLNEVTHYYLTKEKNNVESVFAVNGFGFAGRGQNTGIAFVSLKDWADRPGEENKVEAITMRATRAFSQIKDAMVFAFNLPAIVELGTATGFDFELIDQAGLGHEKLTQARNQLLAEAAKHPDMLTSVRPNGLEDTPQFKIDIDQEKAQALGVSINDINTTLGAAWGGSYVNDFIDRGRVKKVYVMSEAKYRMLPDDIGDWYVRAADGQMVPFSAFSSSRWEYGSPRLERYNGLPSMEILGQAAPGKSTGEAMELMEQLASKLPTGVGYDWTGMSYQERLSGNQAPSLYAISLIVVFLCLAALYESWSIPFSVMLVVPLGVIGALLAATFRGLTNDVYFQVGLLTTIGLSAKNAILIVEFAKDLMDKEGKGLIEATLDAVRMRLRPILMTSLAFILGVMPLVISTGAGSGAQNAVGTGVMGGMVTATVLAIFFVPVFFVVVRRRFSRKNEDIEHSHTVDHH
Sequence of AcrB (Escherichia coli, UniProt P31224) (P31224 whole entry): as the sequence (P31224 whole entry I27A) above, with A27I counted along it
Sequence of AcrB (Escherichia coli, UniProt P31224, V340A) (P31224 whole entry V340A): as the sequence (P31224 whole entry I27A) above, with A27I, V340A counted along it

CC(=O)O[C@H]1C[C@@]2(C)[C@@H](C[C@@H](O)[C@H]3[C@@]4(C)CC[C@@H](O)[C@@H](C)[C@@H]4CC[C@@]32C)/C1=C(\CCC=C(C)C)C(=O)O [FUA, fusidic acid]
Kd [1]: 405 ± 6.6 µM | Kd [2]: 528 ± 8.6 µM | Kd [3]: 826.5 ± 4.8 µM | Kd [4]: 1120 ± 18.2 µM

B1: AcrB-N298A (natural protein)
chain: MPNFFIDRPIFAWVIAIIIMLAGGLAILKLPVAQYPTIAPPAVTISASYPGADAKTVQDTVTQVIEQNMNGIDNLMYMSSNSDSTGTVQITLTFESGTDADIAQVQVQNKLQLAMPLLPQEVQQQGVSVEKSSSSFLMVVGVINTDGTMTQEDISDYVAANMKDAISRTSGVGDVQLFGSQYAMRIWMNPNELNKFQLTPVDVITAIKAQNAQVAAGQLGGTPPVKGQQLNASIIAQTRLTSTEEFGKILLKVNQDGSRVLLRDVAKIELGGENYDIIAEFNGQPASGLGIKLATGAAALDTAAAIRAELAKMEPFFPSGLKIVYPYDTTPFVKISIHEVVKTLVEAIILVFLVMYLFLQNFRATLIPTIAVPVVLLGTFAVLAAFGFSINTLTMFGMVLAIGLLVDDAIVVVENVERVMAEEGLPPKEATRKSMGQIQGALVGIAMVLSAVFVPMAFFGGSTGAIYRQFSITIVSAMALSVLVALILTPALCATMLKPIAKGDHGEGKKGFFGWFNRMFEKSTHHYTDSVGGILRSTGRYLVLYLIIVVGMAYLFVRLPSSFLPDEDQGVFMTMVQLPAGATQERTQKVLNEVTHYYLTKEKNNVESVFAVNGFGFAGRGQNTGIAFVSLKDWADRPGEENKVEAITMRATRAFSQIKDAMVFAFNLPAIVELGTATGFDFELIDQAGLGHEKLTQARNQLLAEAAKHPDMLTSVRPNGLEDTPQFKIDIDQEKAQALGVSINDINTTLGAAWGGSYVNDFIDRGRVKKVYVMSEAKYRMLPDDIGDWYVRAADGQMVPFSAFSSSRWEYGSPRLERYNGLPSMEILGQAAPGKSTGEAMELMEQLASKLPTGVGYDWTGMSYQERLSGNQAPSLYAISLIVVFLCLAALYESWSIPFSVMLVVPLGVIGALLAATFRGLTNDVYFQVGLLTTIGLSAKNAILIVEFAKDLMDKEGKGLIEATLDAVRMRLRPILMTSLAFILGVMPLVISTGAGSGAQNAVGTGVMGGMVTATVLAIFFVPVFFVVVRRRFSRKNEDIEHSHTVDHH
binding result [5]: binds

B2: AcrB-V340A (natural protein)
chain: B1 chain with A298N, V340A
binding result [5]: binds

B3: AcrB-I27A (natural protein)
chain: B1 chain with I27A, A298N
binding result [5]: binds

Reference: article PMC7071731 (Journal of molecular biology, 2019)
